Measured values published in ChEMBL document CHEMBL5715956, “Selective Targeting of Bromodomains of the Bromodomain-PHD Fingers Family Impairs Osteoclast Differentiation” (ACS Chem Biol, 2017).
pIC50: −log10 of the molar value.

Key:
[1] = biological target: T1, Bromodomain-containing protein 1 (Homo sapiens) (UniProt O95696); assay: Binding affinity to BRPF2 (unknown origin) assessed as change in enthalpy at 12 uM by Isothermal titration calorimetry
T1 sequence (whole entry): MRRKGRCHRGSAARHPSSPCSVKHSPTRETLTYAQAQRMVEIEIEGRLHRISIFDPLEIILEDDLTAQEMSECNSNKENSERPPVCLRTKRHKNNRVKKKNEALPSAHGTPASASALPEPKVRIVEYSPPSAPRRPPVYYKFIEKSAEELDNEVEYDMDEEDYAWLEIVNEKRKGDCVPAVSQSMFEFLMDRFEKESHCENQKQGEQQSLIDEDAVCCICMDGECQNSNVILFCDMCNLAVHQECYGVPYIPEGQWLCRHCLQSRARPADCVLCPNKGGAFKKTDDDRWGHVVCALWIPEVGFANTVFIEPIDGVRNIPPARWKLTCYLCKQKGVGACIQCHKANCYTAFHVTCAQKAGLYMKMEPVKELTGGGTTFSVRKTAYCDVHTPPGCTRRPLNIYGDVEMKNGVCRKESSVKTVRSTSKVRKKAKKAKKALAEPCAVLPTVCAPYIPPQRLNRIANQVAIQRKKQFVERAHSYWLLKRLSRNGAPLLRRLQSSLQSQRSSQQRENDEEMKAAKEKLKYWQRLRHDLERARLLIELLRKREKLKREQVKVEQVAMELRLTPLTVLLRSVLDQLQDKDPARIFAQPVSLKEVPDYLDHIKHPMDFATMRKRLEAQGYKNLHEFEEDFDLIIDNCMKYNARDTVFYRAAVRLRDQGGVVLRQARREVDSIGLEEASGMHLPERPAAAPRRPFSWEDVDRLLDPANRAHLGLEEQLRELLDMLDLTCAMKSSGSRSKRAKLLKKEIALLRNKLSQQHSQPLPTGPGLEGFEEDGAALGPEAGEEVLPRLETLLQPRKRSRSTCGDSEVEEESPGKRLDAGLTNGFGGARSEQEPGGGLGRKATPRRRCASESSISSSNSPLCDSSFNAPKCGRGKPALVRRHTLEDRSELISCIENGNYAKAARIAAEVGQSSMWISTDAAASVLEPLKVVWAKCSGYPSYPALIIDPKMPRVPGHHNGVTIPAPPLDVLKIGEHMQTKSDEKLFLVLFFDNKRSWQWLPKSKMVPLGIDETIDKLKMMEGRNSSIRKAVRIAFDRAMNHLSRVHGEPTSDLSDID

[2] = biological target: Bromodomain-containing protein 4 (Homo sapiens) (UniProt O60885); assay: Binding affinity to BRD4 BD1 (unknown origin) assessed as change in enthalpy at 14 uM by Isothermal titration calorimetry
Peregrin (Homo sapiens) = biological target: T2, Peregrin (Homo sapiens) (UniProt P55201); assay: Binding affinity to […] (unknown origin) assessed as change in gibbs free energy at 17 uM by Isothermal titration calorimetry
T2 sequence (whole entry): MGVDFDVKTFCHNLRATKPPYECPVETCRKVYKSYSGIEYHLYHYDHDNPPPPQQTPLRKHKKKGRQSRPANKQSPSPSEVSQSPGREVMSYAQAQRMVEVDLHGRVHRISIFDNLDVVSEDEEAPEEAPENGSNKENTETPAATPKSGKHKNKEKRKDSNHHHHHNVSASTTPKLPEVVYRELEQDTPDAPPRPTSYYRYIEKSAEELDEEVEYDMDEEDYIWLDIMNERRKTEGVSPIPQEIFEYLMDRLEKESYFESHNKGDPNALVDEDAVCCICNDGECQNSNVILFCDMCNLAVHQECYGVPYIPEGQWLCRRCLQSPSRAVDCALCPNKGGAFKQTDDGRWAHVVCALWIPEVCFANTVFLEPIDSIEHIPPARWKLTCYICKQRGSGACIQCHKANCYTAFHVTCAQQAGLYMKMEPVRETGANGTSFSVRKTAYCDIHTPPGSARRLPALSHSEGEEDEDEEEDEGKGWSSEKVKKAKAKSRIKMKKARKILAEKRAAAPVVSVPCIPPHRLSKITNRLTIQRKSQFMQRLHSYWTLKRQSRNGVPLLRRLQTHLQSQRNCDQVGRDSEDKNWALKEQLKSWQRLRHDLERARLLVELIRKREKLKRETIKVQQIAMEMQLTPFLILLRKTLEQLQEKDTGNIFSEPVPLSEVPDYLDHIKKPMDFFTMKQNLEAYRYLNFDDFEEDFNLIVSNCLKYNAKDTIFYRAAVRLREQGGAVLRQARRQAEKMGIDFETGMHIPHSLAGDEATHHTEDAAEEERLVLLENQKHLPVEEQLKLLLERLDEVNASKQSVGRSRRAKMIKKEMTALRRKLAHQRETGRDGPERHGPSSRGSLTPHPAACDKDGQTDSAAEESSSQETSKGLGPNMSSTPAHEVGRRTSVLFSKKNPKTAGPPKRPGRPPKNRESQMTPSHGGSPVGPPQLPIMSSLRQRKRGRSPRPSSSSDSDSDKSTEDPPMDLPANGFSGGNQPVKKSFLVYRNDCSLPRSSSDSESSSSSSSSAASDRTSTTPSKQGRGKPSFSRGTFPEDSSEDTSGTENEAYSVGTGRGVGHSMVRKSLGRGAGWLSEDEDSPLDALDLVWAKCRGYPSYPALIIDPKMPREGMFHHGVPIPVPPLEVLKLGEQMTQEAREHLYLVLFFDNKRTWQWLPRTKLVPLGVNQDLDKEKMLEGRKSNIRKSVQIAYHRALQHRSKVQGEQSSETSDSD

[3] = biological target: Muscarinic acetylcholine receptor M2 (Homo sapiens) (UniProt P08172); assay: Inhibition of M2 receptor (unknown origin) at 10 uM relative to control
[4] = biological target: 5-hydroxytryptamine receptor 5A (Homo sapiens) (UniProt P47898); assay: Inhibition of 5HT5A (unknown origin) at 10 uM relative to control
[5] = biological target: Histamine H1 receptor (Homo sapiens) (UniProt P35367); assay: Binding affinity to H1 receptor (unknown origin) assessed as specific binding at 10 uM relative to control
[6] = biological target: Transcription intermediary factor 1-alpha (Homo sapiens, UniProt O15164)
[7] = biological target: Bromodomain adjacent to zinc finger domain protein 1A (Homo sapiens) (UniProt Q9NRL2); conditions: dose 10.0 µM
[8] = biological target: Bromodomain testis-specific protein (Homo sapiens) (UniProt Q58F21); conditions: dose 10.0 µM
[9] = biological target: Histone acetyltransferase KAT2A (Homo sapiens) (UniProt Q92830); conditions: dose 10.0 µM
[10] = biological target: Histone acetyltransferase p300 (Homo sapiens) (UniProt Q09472); conditions: dose 10.0 µM
[11] = biological target: Protein polybromo-1 (Homo sapiens) (UniProt Q86U86); conditions: dose 10.0 µM
Homo sapiens [12] = organism: Homo sapiens; conditions: dose 10.0 µM
Homo sapiens [13] = organism: Homo sapiens; conditions: dose 10.0 µM; remark: listed apart in the source

Chain of Histamine H1 receptor (Homo sapiens) (P35367 whole entry): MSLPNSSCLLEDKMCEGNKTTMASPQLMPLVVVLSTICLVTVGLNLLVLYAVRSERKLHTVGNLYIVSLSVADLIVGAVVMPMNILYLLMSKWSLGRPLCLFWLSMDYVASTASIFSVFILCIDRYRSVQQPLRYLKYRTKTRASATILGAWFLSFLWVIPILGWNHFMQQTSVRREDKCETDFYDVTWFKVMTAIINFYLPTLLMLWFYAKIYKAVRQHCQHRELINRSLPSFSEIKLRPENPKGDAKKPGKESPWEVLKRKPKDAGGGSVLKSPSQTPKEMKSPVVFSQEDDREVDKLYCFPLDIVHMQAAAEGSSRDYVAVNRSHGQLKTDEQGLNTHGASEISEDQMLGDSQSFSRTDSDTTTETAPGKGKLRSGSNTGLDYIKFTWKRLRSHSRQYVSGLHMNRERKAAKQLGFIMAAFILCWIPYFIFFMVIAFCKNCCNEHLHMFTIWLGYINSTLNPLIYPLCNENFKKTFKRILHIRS
Chain of Transcription intermediary factor 1-alpha (O15164 whole entry, the tested form may be a part): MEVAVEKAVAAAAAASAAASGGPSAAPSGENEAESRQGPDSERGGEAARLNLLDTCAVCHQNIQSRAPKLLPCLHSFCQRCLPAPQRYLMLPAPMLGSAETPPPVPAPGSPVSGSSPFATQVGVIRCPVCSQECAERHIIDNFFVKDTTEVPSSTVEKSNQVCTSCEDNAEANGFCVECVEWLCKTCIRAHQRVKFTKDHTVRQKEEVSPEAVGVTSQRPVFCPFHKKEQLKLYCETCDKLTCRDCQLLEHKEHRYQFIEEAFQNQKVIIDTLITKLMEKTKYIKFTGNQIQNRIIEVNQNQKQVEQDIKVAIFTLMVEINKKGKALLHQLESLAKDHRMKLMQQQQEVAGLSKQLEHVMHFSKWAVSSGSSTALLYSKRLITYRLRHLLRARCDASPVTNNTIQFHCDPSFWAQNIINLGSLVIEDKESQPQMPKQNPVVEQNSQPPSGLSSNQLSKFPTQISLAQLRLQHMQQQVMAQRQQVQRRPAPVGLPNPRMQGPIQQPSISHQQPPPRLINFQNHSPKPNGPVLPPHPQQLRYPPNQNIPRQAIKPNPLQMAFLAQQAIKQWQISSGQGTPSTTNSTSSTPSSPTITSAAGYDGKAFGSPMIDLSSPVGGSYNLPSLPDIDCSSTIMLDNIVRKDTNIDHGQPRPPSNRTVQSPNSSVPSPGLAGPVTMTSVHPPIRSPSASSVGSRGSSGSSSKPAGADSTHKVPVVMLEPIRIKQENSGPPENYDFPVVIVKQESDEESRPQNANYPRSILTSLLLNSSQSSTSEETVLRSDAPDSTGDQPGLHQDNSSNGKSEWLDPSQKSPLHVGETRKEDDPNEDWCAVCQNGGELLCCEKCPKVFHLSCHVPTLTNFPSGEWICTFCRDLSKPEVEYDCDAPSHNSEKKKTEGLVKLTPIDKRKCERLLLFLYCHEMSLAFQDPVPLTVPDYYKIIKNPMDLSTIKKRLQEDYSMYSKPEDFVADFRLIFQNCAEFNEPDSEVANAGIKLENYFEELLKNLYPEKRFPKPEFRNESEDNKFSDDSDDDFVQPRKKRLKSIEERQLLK
Chain of Bromodomain adjacent to zinc finger domain protein 1A (Homo sapiens) (Q9NRL2 whole entry, the tested form may be a part): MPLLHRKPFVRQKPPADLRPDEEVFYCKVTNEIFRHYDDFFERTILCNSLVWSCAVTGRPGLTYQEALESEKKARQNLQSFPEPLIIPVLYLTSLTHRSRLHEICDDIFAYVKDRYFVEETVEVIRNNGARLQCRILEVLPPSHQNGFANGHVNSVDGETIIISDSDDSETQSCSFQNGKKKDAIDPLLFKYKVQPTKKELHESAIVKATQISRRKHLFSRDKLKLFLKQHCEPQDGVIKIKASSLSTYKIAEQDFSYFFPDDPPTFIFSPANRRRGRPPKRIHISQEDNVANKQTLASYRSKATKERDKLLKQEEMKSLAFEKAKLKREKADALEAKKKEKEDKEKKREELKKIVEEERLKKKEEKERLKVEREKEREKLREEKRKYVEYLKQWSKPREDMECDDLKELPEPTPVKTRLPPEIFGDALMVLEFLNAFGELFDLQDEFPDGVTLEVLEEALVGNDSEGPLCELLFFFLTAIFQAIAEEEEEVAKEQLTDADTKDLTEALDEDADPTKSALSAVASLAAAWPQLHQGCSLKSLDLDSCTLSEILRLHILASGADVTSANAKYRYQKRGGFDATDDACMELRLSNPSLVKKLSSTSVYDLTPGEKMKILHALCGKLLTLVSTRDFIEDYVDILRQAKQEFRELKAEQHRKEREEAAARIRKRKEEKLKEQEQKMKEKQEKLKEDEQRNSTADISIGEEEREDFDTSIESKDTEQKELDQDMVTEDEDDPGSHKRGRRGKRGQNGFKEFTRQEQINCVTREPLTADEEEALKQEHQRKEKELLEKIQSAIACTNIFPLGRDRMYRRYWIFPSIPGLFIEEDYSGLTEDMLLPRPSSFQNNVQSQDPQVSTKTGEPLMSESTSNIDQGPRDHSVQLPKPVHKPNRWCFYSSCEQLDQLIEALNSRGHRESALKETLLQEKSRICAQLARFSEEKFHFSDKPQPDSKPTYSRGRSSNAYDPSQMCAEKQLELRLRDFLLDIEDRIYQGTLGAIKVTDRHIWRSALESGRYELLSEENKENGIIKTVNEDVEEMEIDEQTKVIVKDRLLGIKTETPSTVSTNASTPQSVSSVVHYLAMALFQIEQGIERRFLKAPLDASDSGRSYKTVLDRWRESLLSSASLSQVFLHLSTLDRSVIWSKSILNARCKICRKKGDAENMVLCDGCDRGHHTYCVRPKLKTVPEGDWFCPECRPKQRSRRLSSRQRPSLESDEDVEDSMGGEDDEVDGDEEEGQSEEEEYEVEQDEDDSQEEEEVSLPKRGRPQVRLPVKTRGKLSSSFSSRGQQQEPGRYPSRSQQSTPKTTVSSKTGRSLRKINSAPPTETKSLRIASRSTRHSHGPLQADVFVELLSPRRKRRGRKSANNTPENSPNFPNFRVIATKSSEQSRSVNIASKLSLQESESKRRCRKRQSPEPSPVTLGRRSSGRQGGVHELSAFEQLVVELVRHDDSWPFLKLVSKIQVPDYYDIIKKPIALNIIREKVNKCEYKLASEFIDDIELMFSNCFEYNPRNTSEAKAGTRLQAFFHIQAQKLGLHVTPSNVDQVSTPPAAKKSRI
Chain of 5-hydroxytryptamine receptor 5A (Homo sapiens) (P47898 whole entry): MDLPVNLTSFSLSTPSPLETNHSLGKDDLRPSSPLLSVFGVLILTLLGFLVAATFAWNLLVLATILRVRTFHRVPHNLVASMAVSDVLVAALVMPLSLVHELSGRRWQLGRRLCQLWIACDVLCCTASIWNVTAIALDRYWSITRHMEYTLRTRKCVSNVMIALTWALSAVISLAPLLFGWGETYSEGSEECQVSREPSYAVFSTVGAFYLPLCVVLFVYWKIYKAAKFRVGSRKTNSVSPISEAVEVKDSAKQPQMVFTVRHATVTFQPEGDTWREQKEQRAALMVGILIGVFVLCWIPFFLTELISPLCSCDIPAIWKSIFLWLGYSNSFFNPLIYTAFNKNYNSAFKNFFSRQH
Chain of Histone acetyltransferase KAT2A (Homo sapiens) (Q92830 2-837 limits assumed): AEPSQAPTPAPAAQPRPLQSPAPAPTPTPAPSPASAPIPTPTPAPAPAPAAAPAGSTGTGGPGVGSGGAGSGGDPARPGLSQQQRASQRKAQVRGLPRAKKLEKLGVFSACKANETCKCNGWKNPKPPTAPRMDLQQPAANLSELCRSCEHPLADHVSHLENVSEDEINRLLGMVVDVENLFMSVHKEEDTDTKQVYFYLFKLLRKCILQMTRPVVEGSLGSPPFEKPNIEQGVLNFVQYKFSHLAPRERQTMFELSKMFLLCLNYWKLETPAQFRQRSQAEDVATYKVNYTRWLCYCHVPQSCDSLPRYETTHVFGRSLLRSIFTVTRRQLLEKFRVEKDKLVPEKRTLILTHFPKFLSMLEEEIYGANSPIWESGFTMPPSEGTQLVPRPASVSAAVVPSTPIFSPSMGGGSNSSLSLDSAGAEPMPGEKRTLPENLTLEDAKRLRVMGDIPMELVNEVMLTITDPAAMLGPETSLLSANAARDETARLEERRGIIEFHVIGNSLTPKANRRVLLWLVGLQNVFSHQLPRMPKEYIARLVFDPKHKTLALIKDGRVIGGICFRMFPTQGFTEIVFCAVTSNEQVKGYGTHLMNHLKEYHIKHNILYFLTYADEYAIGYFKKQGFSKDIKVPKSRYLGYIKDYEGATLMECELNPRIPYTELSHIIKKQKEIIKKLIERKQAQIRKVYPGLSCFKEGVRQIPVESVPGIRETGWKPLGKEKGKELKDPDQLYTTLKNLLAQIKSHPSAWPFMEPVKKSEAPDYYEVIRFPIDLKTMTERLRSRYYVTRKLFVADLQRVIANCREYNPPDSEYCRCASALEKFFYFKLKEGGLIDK
Chain of Muscarinic acetylcholine receptor M2 (Homo sapiens) (P08172 whole entry): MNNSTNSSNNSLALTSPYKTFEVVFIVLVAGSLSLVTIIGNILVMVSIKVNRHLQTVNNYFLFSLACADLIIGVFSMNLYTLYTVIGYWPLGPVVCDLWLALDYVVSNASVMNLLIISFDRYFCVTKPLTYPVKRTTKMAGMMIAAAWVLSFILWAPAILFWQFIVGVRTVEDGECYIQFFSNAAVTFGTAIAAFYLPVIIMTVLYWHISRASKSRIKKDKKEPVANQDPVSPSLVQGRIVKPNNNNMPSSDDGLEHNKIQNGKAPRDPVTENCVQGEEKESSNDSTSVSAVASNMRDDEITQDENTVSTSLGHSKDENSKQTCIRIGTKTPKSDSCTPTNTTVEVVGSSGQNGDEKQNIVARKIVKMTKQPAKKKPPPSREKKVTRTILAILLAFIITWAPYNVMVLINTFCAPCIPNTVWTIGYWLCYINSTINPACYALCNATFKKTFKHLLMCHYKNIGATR

COc1cc2c(cc1NS(=O)(=O)c1ccc(Br)cc1C)n(C)c(=O)n2C
deltaH [1]: -9.5 kcal/mol
deltaH [2]: -6.93 kcal/mol
deltaG (Peregrin (Homo sapiens)): -9.24 kcal/mol
inhibition [3]: 9%
inhibition [4]: 22%
Activity [5]: 96.8%
pIC50 [6]: < 5.00
ΔTm [7]: 0.15 °C
ΔTm [8]: 0.8 °C
ΔTm [9]: -0.4 °C
ΔTm [10]: 0.7 °C
ΔTm [11]: 0.2 °C
ΔTm (Homo sapiens [12]): -0.4 °C
ΔTm (Homo sapiens [13]): 0.2 °C
